Experimental data: ChEMBL document CHEMBL1201862, “PubChem BioAssay data set” (2004)
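How tested: cells in 96-well plates exposed to compound for 48 hours at five concentrations. GI50 is the concentration that inhibits growth by half.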 Active and inactive are the calls of the source. Rule as the data show it: active = GI50 up to about 1.1 µM and inactive = higher.

Assays:
Assay in all cases: NCI-60 cell line screen, 48 h
LOX IMVI = system: LOX IMVI
NCI-H23 = system: NCI-H23
HCC 2998 = system: HCC 2998
EKVX = system: EKVX
HOP-18 = system: HOP-18
HT-29 = system: HT-29
SK-OV-3 = system: SK-OV-3
SK-MEL-28 = system: SK-MEL-28
HCT-15 = system: HCT-15
RXF 393 = system: RXF 393
CCRF-CEM = system: CCRF-CEM
M19-MEL = system: M19-MEL
ACHN = system: ACHN
MOLT-4 = system: MOLT-4
NCI-H460 = system: NCI-H460
SNB-19 = system: SNB-19
K562 = system: K562
KM-20L2 = system: KM-20L2
KM12 = system: KM12
DLD-1 = system: DLD-1
A549 = system: A549
SK-MEL-5 = system: SK-MEL-5
COLO 205 = system: COLO 205
UO-31 = system: UO-31
OVCAR-3 = system: OVCAR-3
UACC-257 = system: UACC-257
SN12C = system: SN12C
Malme-3M = system: Malme-3M
RPMI-8226 = system: RPMI-8226
A498 = system: A498
SNB-75 = system: SNB-75
NCI-H522 = system: NCI-H522
DMS-273 = system: DMS-273
TK-10 = system: TK-10
U-251 = system: U-251
UACC-62 = system: UACC-62
OVCAR-8 = system: OVCAR-8
OVCAR-4 = system: OVCAR-4
XF498 = system: XF498
SF-268 = system: SF-268
SF-539 = system: SF-539
M14 = system: M14
LXFL 529 = system: LXFL 529
OVCAR-5 = system: OVCAR-5
SW-620 = system: SW-620
SK-MEL-2 = system: SK-MEL-2
IGROV-1 = system: IGROV-1
786-0 = system: 786-0
SF-295 = system: SF-295
CAKI-1 = system: CAKI-1
HL-60 = system: HL-60
HOP-92 = system: HOP-92
HCT-116 = system: HCT-116
DMS-114 = system: DMS-114
NCI-H226 = system: NCI-H226
HOP-62 = system: HOP-62

C[C@H](NS(=O)(=O)c1ccc(NC(=O)c2ccccc2)cc1)C(=O)O
GI50 (LOX IMVI): > 100 µM (inactive) | GI50 (NCI-H23): > 100 µM (inactive) | GI50 (HCC 2998): > 100 µM (inactive) | GI50 (EKVX): > 100 µM (inactive) | GI50 (HOP-18): > 100 µM (inactive) | GI50 (HT-29): > 100 µM (inactive) | GI50 (SK-OV-3): > 100 µM (inactive) | GI50 (SK-MEL-28): > 100 µM (inactive) | GI50 (HCT-15): > 100 µM | GI50 (RXF 393): > 100 µM (inactive) | GI50 (CCRF-CEM): > 100 µM (inactive) | GI50 (M19-MEL): > 100 µM (inactive) | GI50 (ACHN): > 100 µM (inactive) | GI50 (MOLT-4): > 100 µM (inactive) | GI50 (NCI-H460): > 100 µM (inactive) | GI50 (SNB-19): > 100 µM (inactive) | GI50 (K562): > 100 µM (inactive) | GI50 (KM-20L2): > 100 µM (inactive) | GI50 (KM12): > 100 µM (inactive) | GI50 (DLD-1): > 100 µM (inactive) | GI50 (A549): > 100 µM (inactive) | GI50 (SK-MEL-5): > 100 µM (inactive) | GI50 (COLO 205): > 100 µM (inactive) | GI50 (UO-31): > 100 µM (inactive) | GI50 (OVCAR-3): > 100 µM (inactive) | GI50 (UACC-257): > 100 µM (inactive) | GI50 (SN12C): > 100 µM (inactive) | GI50 (Malme-3M): > 100 µM (inactive) | GI50 (RPMI-8226): > 100 µM (inactive) | GI50 (A498): > 100 µM (inactive) | GI50 (SNB-75): > 100 µM (inactive) | GI50 (NCI-H522): > 100 µM (inactive) | GI50 (DMS-273): > 100 µM (inactive) | GI50 (TK-10): > 100 µM (inactive) | GI50 (U-251): > 100 µM (inactive) | GI50 (UACC-62): > 100 µM (inactive) | GI50 (OVCAR-8): > 100 µM (inactive) | GI50 (OVCAR-4): > 100 µM (inactive) | GI50 (XF498): > 100 µM (inactive) | GI50 (SF-268): > 100 µM (inactive) | GI50 (SF-539): > 100 µM (inactive) | GI50 (M14): > 100 µM (inactive) | GI50 (LXFL 529): > 100 µM (inactive) | GI50 (OVCAR-5): > 100 µM (inactive) | GI50 (SW-620): > 100 µM (inactive) | GI50 (SK-MEL-2): > 100 µM (inactive) | GI50 (IGROV-1): > 100 µM (inactive) | GI50 (786-0): > 100 µM (inactive) | GI50 (SF-295): > 100 µM (inactive) | GI50 (CAKI-1): > 100 µM (inactive) | GI50 (HL-60): > 100 µM (inactive) | GI50 (HOP-92): > 100 µM (inactive)

CCOC(=O)C[C@@]12CCCNC1(C)CCc1ccccc12 (stereo not given in full)
GI50 (LOX IMVI): > 100 µM (inactive) | GI50 (EKVX): > 100 µM (inactive) | GI50 (HOP-18): 63.2 µM (inactive) | GI50 (HT-29): > 100 µM (inactive) | GI50 (SK-OV-3): > 100 µM (inactive) | GI50 (HCT-15): > 100 µM | GI50 (HCT-116): > 100 µM (inactive) | GI50 (CCRF-CEM): > 100 µM (inactive) | GI50 (M19-MEL): > 100 µM (inactive) | GI50 (ACHN): > 100 µM (inactive) | GI50 (MOLT-4): > 100 µM (inactive) | GI50 (NCI-H460): > 100 µM (inactive) | GI50 (SNB-19): > 100 µM (inactive) | GI50 (K562): > 100 µM (inactive) | GI50 (KM-20L2): > 100 µM (inactive) | GI50 (KM12): > 100 µM (inactive) | GI50 (DMS-114): > 100 µM (inactive) | GI50 (DLD-1): > 100 µM (inactive) | GI50 (A549): > 100 µM (inactive) | GI50 (SK-MEL-5): > 100 µM (inactive) | GI50 (COLO 205): > 100 µM (inactive) | GI50 (UO-31): > 100 µM (inactive) | GI50 (OVCAR-3): > 100 µM (inactive) | GI50 (UACC-257): > 100 µM (inactive) | GI50 (SN12C): > 100 µM (inactive) | GI50 (Malme-3M): > 100 µM (inactive) | GI50 (RPMI-8226): > 100 µM (inactive) | GI50 (NCI-H226): > 100 µM (inactive) | GI50 (DMS-273): > 100 µM (inactive) | GI50 (TK-10): > 100 µM (inactive) | GI50 (U-251): > 100 µM (inactive) | GI50 (UACC-62): > 100 µM (inactive) | GI50 (OVCAR-8): > 100 µM (inactive) | GI50 (XF498): > 100 µM (inactive) | GI50 (SF-539): > 100 µM (inactive) | GI50 (M14): > 100 µM (inactive) | GI50 (HOP-62): > 100 µM (inactive) | GI50 (SW-620): > 100 µM (inactive) | GI50 (SK-MEL-2): > 100 µM (inactive) | GI50 (IGROV-1): > 100 µM (inactive) | GI50 (786-0): > 100 µM (inactive) | GI50 (SF-295): 52.5 µM (inactive) | GI50 (HL-60): > 100 µM (inactive)
